Where “and” joins values, the source holds several entries; their conditions need not be identical. Identical values can stand only once. Like-named read-outs stand apart in the source and are kept apart here.
Columns and labels:
Nluc-FFA1 = molecular target: T1, Nluc-FFA1 (Homo sapiens, UniProt O14842); assay: NanoBRET binding (saturation, competition, kinetics) at N terminal Nluc tagged FFA1; conditions: for kOff Nano-BRET: TUG-2591 100 nM then TUG-905 10 μM, or TUG-2597 […] then T360 10 μM; for kOff Nano-BRET Multiple Concentration / kOn Nano-BRET Multiple Concentration: multiple concentration of labelled ligand association model; for kOff Nano-BRET Allosterism, Nluc-FFA1: TUG-2591 (1 μM) in the presence of T360 (30μM), TUG-2597 (1 μM) in the presence of TUG-905 (30μM), 95% CI in parentheses; for Specific BRET (690/450)%: Figure 4Ci; for Specific BRET (690/450)% / Specific BRET (540/450)%: technical duplicates; for Specific BRET (540/450)%: Figure 4Cii; for 'bottom' of the IC50 curve fit, Nano-BRET TUG-2591 / 'bottom' of the IC50 curve fit, Nano-BRET TUG-2597: percentage of binding in the absence of competing ligand; for 'bottom' of the IC50 curve fit, Nano-BRET TUG-2591: tracer TUG-2591 100 nM; for 'bottom' of the IC50 curve fit, Nano-BRET TUG-2597 / pIC50 Nano-BRET TUG-2597: tracer TUG-2597 […]; for pIC50 Nano-BRET TUG-2597: NBD/Nluc; for pKi Nano-BRET TUG-2597: using Kd TUG-2597 380 nM
T1 construct: expressed in transfected cells
T1 sequence (O14842 whole entry): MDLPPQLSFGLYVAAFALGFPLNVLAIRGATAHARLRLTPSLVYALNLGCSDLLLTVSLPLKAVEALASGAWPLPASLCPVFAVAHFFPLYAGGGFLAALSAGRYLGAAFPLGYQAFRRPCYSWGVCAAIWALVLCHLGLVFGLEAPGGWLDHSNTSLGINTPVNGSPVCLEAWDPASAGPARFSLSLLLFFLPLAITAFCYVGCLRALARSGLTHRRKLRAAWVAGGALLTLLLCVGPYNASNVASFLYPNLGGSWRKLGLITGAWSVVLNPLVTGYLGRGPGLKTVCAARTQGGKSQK

FFA1 = FFA1 (Homo sapiens, UniProt O14842); assay: NanoBiT arrestin-3 recruitment in HEK293T cells; format: cell-based; parameters: expressed in transfected cells; host or cells: HEK293T, transient; conditions: for EMax (% TUG-905) arrestin-3 recruitment: percentage of the response to 10 μM TUG-905; for EMax (% TUG-905) arrestin-3 recruitment / pEC50 arrestin-3 recruitment: ± SEM; for pEC50 arrestin-3 recruitment: N=3; for Arrestin recruitment (% TUG-905): technical duplicate
Chain of FFA1 (O14842 whole entry): as above
Description: For arrestin-3 recruitment assays, HEK293T cells were transfected with FFA1 receptor and a bystander NanoBiT split luciferase arrestin-3 recruitment biosensor. Cells were transfected and plated simultaneously in a reverse transfection protocol into a poly-D-lysine coated white 96-well plate. Per well, 60,000 cells were transfected with 5 ng plasmid expressing LgBiT with a N-terminal Lyn11 plasma membrane localisation tag, 5 ng plasmid expressing bovine arrestin-3 fused at its N-terminal to SmBiT tag and 30 ng plasmid expressing the human FFA1 receptor. Total DNA was made up to 100 ng total/well with empty pcDNA3 vector and transfected to cell suspension with 0.6 µg/well PEI. Following transfection cells were cultured for 24 h before use. On the day of assay, cells were washed twice with HBSS and incubated in HBSS for 30 min at 37 °C. NanoGlo substrate was added at a final 1:800 dilution and incubated in the dark for 10 min at 37 °C. […] Raw luminescence values were divided by baseline signal (average of first 5 data points prior to compound addition) and vehicle measurements subtracted from agonist treatment. Area under curves were calculated and concentration response curves plotted.

[1] = Nluc-FFA1, 95% confidence interval in parentheses, read-out: Kd, saturation BRET binding
[2] = Nluc-FFA1, association then dissociation model
[3] = Nluc-FFA1, association then dissociation model, read-out: Kd Nano-BRET (kinetic)
[4] = Nluc-FFA1, read-out: Kd Nano-BRET Multiple Concentration (kinetic)
[5] = footnotes of Supplementary Table 3, read-out: Kd values obtained in NanoBRET saturation experiments (used for pKi) (converted)

| SMILES | Kd (Nluc-FFA1; [1]) [µM] | kOn Nano-BRET (Nluc-FFA1; [2]) [M⁻¹ s⁻¹] | kOff Nano-BRET (Nluc-FFA1; [2]) [s⁻¹] | Kd (Nluc-FFA1; [3]) [µM] | kOff Nano-BRET Multiple Concentration (Nluc-FFA1; Nluc-FFA1) [s⁻¹] | kOn Nano-BRET Multiple Concentration (Nluc-FFA1; Nluc-FFA1) [M⁻¹ s⁻¹] | Kd (Nluc-FFA1; [4]) [µM] | kOff Nano-BRET Allosterism, Nluc-FFA1 (Nluc-FFA1) | Kd (Nluc-FFA1; [5]) [µM] | EMax (% TUG-905) arrestin-3 recruitment (FFA1) [%] | pEC50 arrestin-3 recruitment (FFA1) | Specific BRET (690/450)% (Nluc-FFA1; log[Ligand] -5) | Specific BRET (690/450)% (Nluc-FFA1; log[Ligand] -5.5) | Specific BRET (690/450)% (Nluc-FFA1; log[Ligand] -6) | Specific BRET (690/450)% (Nluc-FFA1; log[Ligand] -6.5) | Specific BRET (690/450)% (Nluc-FFA1; log[Ligand] -7) | Specific BRET (690/450)% (Nluc-FFA1; log[Ligand] -8) | Specific BRET (690/450)% (Nluc-FFA1; log[Ligand] -9) | Specific BRET (690/450)% (Nluc-FFA1; log[Ligand] -10) | Specific BRET (540/450)% (Nluc-FFA1; log[Ligand] -7) | other results |
| --- | --- | --- | --- | --- | --- | --- | --- | --- | --- | --- | --- | --- | --- | --- | --- | --- | --- | --- | --- | --- | --- |
| COc1ccc(C(=O)N(CC(C)(C)CNc2ccc([N+](=O)[O-])c3nonc23)c2cccc(C)n2)c(N2CCC(COc3cccc(C(CC(=O)O)C4CC4)c3)CC2)c1.O=C(O)C(F)(F)F (centres unmarked) [TUG-2597] | 0.39 | 58333.33 | 0.00633 | 0.11 | 0.0065 | 12000 | 0.54 | 0.20 (0.195-0.203) min-1 | 0.38 | 60 ± 6 | 8.5 ± 0.3 |  |  |  |  |  |  |  |  |  | Specific BRET (Nluc-FFA1; Nluc-FFA1 (Fig 1F), percentage of the maximal signal, [TUG-2597] 550 nM): 73.921% and 62.249% and 55.324% and 54.737% and 83.741% and 100.190%; Specific BRET (540/450) Ratio (Nluc-FFA1; Nluc-FFA1, [TUG-2597] 100 nM): 0.0112 and 0.0100 and 0.0162 and 0.0091 and 0.0128 and 0.0161; Specific BRET (540/450) Ratio (Nluc-FFA1; Nluc-FFA1, [TUG-2597] 550 nM): 0.0530 and 0.0471 and 0.0466; Specific BRET (540/450) Ratio (Nluc-FFA1; Nluc-FFA1, [TUG-2597] 1000 nM): 0.0547 and 0.0609 and 0.0560 and 0.0683 and 0.0664 and 0.0577; Kd (Nluc-FFA1; using either Nluc location (N or C terminal), read-out: Kd, saturation NanoBRET): 0.35 to 0.44 µM |
| COc1ccc(CCCC(C)(C)C)c(N2CCC(COc3cccc(C(CC(=O)O)C4CC4)c3)CC2)c1.O=C(O)C(F)(F)F (centres unmarked) [T360] |  |  |  |  |  |  |  |  |  | 66 ± 8 | 8.9 ± 0.4 | 144.71% and 144.91% and 150.40% and 149.82% and 134.29% and 145.90% | 150.41% and 165.34% and 156.87% and 151.43% and 153.00% and 148.40% | 147.37% and 160.23% and 150.08% and 152.06% and 150.91% and 153.01% | 152.25% and 156.48% and 155.51% and 156.07% and 157.69% and 151.71% | 145.58% and 149.69% and 148.14% and 147.21% and 151.85% and 147.91% | 131.96% and 136.95% and 136.24% and 131.47% and 126.78% and 129.57% | 110.80% and 118.14% and 114.71% and 107.71% and 113.55% and 115.30% | 99.19% and 105.01% and 94.99% and 98.91% and 101.09% and 100.81% | 53.44% and 33.59% and 38.71% and 49.07% and 47.92% and 48.08% and 44.12% and 39.90% | Specific BRET (540/450)% (Nluc-FFA1; log[Ligand] -6.5): 37.02% and 22.26% and 31.97% and 27.51% and 29.14% and 29.84% and 21.82% and 24.91%; Specific BRET (540/450)% (Nluc-FFA1; log[Ligand] -8): 84.61% and 81.81% and 70.02% and 81.70% and 81.41% and 76.64% and 80.12%; Specific BRET (540/450)% (Nluc-FFA1; log[Ligand] -9): 105.73% and 99.36% and 90.61% and 103.73% and 98.31% and 99.33% and 93.77%; Specific BRET (540/450)% (Nluc-FFA1; log[Ligand] -10): 104.20% and 95.80% and 91.09% and 108.91% and 101.37% and 98.63% and 98.32% and 101.68%; 'bottom' of the IC50 curve fit, Nano-BRET TUG-2591 (Nluc-FFA1): 150%; 'bottom' of the IC50 curve fit, Nano-BRET TUG-2597 (Nluc-FFA1): 5.3%; pIC50 Nano-BRET TUG-2597 (Nluc-FFA1): 7.1±0.03; pKi Nano-BRET TUG-2597 (Nluc-FFA1): 7.4±0.03; Arrestin recruitment (% TUG-905) (FFA1; log[Ligand] -7): 60.5575 % TUG-905 and 49.7987 % TUG-905 and 50.2806 % TUG-905 and 80.5606 % TUG-905 and 71.6469 % TUG-905 and 70.6208 % TUG-905; Arrestin recruitment (% TUG-905) (FFA1; log[ligand] -6): 47.2004 % TUG-905 and 63.2995 % TUG-905 and 73.3709 % TUG-905 and 81.6896 % TUG-905 and 75.2182 % TUG-905 and 56.718 % TUG-905; Arrestin recruitment (% TUG-905) (FFA1; log[ligand] -6.5): 57.9984 % TUG-905 and 49.7595 % TUG-905 and 71.7903 % TUG-905 and 68.6055 % TUG-905 and 72.4316 % TUG-905 and 77.5018 % TUG-905; Arrestin recruitment (% TUG-905) (FFA1; log[ligand] -7.5): 57.0191 % TUG-905 and 67.1382 % TUG-905 and 59.7164 % TUG-905 and 62.616 % TUG-905 and 83.9201 % TUG-905 and 49.002 % TUG-905 |
| Cc1cc(OCCCNC(=O)CCCN2\C(=C/C=C/C=C/C3=[N+](C)c4ccc(S(=O)(=O)[O-])cc4C3(C)C)C(C)(C)c3ccccc32)ccc1-c1cccc(COc2ccc(CCC(=O)O)c(F)c2)c1 [TUG-2591] | 0.21 | 26666.67 | 0.00683 | 0.25 | 0.0207 | 125000 | 0.17 | 0.034 (0.032-0.035) min-1 | 0.2 | 91 ± 6 | 7.5 ± 0.4 |  |  |  |  |  |  |  |  |  | BMax, saturation BRET binding (Nluc-FFA1; Nluc-FFA1, specific BRET, 95% confidence interval in parentheses): 0.31 (0.27-0.37); off-rate, times faster in single ligand NanoBRET compared with dual ligand DISCo-BRET (Nluc-FFA1; ratio of off-rates): ~ 10 |
| COc1ccc(C(=O)N(CC(C)(C)C)c2cccc(C)n2)c(N2CCC(COc3cccc(C(CC(=O)O)C4CC4)c3)CC2)c1.O=C(O)C(F)(F)F (centres unmarked) [Cpd 6h, reference compound] |  |  |  |  |  |  |  |  |  | 54 ± 6 | 9.1 ±0.1 | 154.01% and 159.82% and 184.44% and 164.18% and 149.89% and 140.91% | 149.18% and 149.96% and 186.01% and 169.50% and 140.81% and 140.26% | 148.97% and 147.78% and 172.23% and 173.39% and 141.21% and 145.62% | 146.95% and 143.16% and 174.27% and 175.78% and 147.71% and 149.19% | 142.54% and 138.75% and 174.07% and 180.89% and 144.33% and 137.24% | 121.15% and 120.06% and 152.10% and 144.46% and 121.71% and 120.62% | 105.22% and 101.22% and 121.39% and 115.73% and 104.79% and 106.52% | 100.55% and 99.45% and 103.65% and 96.35% and 96.40% and 103.60% | 19.25% and 26.02% and 25.79% and 30.80% and 33.39% and 36.04% | Specific BRET (540/450)% (Nluc-FFA1; log[Ligand] -8): 119.18% and 117.93% and 79.82% and 76.64% and 93.10% and 100.29%; Specific BRET (540/450)% (Nluc-FFA1; log[Ligand] -9): 109.78% and 127.71% and 86.42% and 90.20% and 105.18% and 118.46%; Specific BRET (540/450)% (Nluc-FFA1; log[Ligand] -10): 94.36% and 105.64% and 98.39% and 101.61% and 82.28% and 117.72%; 'bottom' of the IC50 curve fit, Nano-BRET TUG-2591 (Nluc-FFA1): 160%; 'bottom' of the IC50 curve fit, Nano-BRET TUG-2597 (Nluc-FFA1): -16%; pIC50 Nano-BRET TUG-2597 (Nluc-FFA1): 7.2±0.03; pKi Nano-BRET TUG-2597 (Nluc-FFA1): 7.5±0.03; Arrestin recruitment (% TUG-905) (FFA1; log[ligand] -6): 78.0249 % TUG-905 and 64.444 % TUG-905 and 40.7503 % TUG-905 and 51.9792 % TUG-905 and 61.8079 % TUG-905 and 63.543 % TUG-905; Arrestin recruitment (% TUG-905) (FFA1; log[ligand] -6.5): 82.3608 % TUG-905 and 53.7805 % TUG-905 and 51.6658 % TUG-905 and 54.0552 % TUG-905 and 67.7023 % TUG-905 and 49.6983 % TUG-905; Arrestin recruitment (% TUG-905) (FFA1; log[ligand] -7.5): 66.0536 % TUG-905 and 57.1103 % TUG-905 and 48.5714 % TUG-905 and 47.0829 % TUG-905 and 58.219 % TUG-905 and 65.2186 % TUG-905; Arrestin recruitment (% TUG-905) (FFA1; log[ligand] -8): 69.0414 % TUG-905 and 63.7801 % TUG-905 and 51.8356 % TUG-905 and 46.0645 % TUG-905 and 48.8783 % TUG-905 and 52.0275 % TUG-905 |

— article PMC12254266, “Multicolored sequential resonance energy transfer for detection of simultaneous ligand binding at G protein-coupled receptors” (Nature Communications, 2025)
